ChEMBL document CHEMBL1201862, “PubChem BioAssay data set” (2004)
Activity calls are given as the source filed them.

Tests used:
[1] = molecular target: T1, Protein phosphatase methylesterase 1 (Homo sapiens, UniProt Q9Y570); assay: Late stage results from the probe development effort to identify inhibitors of the protein methylesterase PME-1: Gel-based Activity-Based Protein Profiling (ABPP) IC50: Purified enzyme.; assay type: functional
[2] = molecular target: T1, Protein phosphatase methylesterase 1; assay: endogenous PME-1 and serine hydrolase inhibition – cell lysate, mouse brain cytosol, FP-rhodamine, gel ABPP, selectivity assay for PME-1 inhibitor project, dose response, panel member PME-1 Assay Panel member description: Inhibition of endogenously expressed PME-1 (AID 2366)
[3] = molecular target: T2, Zinc finger protein mex-5 (Caenorhabditis elegans, UniProt Q9XUB2); assay: potency of MEX-5 RNA-binding blockers – biochemical, C. elegans, fluorescence polarization, dose response (AID 1960)
T2 sequence (Q9XUB2 whole entry): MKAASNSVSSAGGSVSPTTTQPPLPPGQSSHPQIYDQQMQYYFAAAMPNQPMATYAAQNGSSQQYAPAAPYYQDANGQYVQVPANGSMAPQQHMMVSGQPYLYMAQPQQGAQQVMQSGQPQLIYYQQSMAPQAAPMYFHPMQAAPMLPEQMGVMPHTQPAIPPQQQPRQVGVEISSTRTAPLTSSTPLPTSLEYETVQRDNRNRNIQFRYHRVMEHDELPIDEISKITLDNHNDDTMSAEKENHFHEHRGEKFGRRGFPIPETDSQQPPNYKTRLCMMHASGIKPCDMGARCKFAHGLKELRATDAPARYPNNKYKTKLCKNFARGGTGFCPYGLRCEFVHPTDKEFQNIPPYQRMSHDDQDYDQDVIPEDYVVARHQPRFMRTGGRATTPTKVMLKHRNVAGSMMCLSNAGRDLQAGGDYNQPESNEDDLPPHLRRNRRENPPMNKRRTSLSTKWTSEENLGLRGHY

[4] = molecular target: Protein Rev (Human immunodeficiency virus type 1 group M subtype B (isolate HXB2)(HIV-1), UniProt P04618); assay: blockers of HIV Rev/RRE RNA complex – biochemical, fluorescence polarization, HIV-1, dose response (AID 434976); parameters: species or system Human immunodeficiency virus 1
[5] = molecular target: T3, RNA-binding protein pos-1 (Caenorhabditis elegans, UniProt G5EF15); assay: disruptors of C. elegans POS-1 RNA interaction – biochemical, fluorescence polarization, dose response (AID 1964);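 further: purified POS-1 fused to maltose binding protein made in E. coli; potency of compounds blocking POS-1 binding to fluorescent RNA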
T3 sequence (G5EF15 whole entry): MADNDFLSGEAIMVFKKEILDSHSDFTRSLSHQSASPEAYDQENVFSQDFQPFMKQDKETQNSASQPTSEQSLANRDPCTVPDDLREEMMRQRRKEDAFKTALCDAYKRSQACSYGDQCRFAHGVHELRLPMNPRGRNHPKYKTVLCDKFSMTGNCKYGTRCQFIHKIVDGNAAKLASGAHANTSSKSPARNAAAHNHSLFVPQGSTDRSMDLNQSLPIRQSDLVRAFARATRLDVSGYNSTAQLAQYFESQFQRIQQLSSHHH

[6] = molecular target: Female germline-specific tumor suppressor gld-1 (Caenorhabditis elegans, UniProt Q17339); assay: blockers of GLD-1/TGE RNA complex formation – biochemical, fluorescence polarization, C. elegans, dose response (AID 2802);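 further: fluorescence polarization of labeled TGE RNA bound by purified gld-1 protein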
[7] = off-target signal loss in HeLa-CEM21 co-culture – HeLa F-luc CTL cells, cherry-picked, counter-screen for HIV-1 Env fusion inhibitor project, dose response (AID 652040); assay type: functional, cell-based;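 further: potency for signal decrease marking cytotoxic or nonspecific inhibition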
[8] = molecular target: T4, Luciferin 4-monooxygenase (Photinus pyralis, UniProt P08659); assay: In vitro luciferase assay using purified luciferase. [Related pubchem assays: 1299, 1270, 1295, 1375, 1287, 1281, 1293, 1291, 1289, 1280, 465, 1364, 1282, 1372, 1365, 1370, 1367, 1366, 1266, 1373, 1292, 1290, 1302, 1371, 1283, 1271, 1294, 1374, 1368, 1369 ]
[9] = test system: HEK293; assay: PMA/Ionomycin induced NF-kB luciferase assay in 293- NF-kB-Luc stable cells. [Related pubchem assays: 1299, 1270, 1295, 1375, 1287, 1281, 1293, 1291, 1289, 1280, 465, 1364, 1282, 1372, 1365, 1370, 1367, 1366, 1269, 1373, 1292, 1290, 1302, 1371, 1283, 1271, 1294, 1374, 1368, 1369 ]; assay type: functional, cell-based; details: Homo sapiens
[10] = HIV-1 AD8 envelope cell-cell fusion blockers – cherry-pick, dose response (AID 652062); assay type: functional, cell-based;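 further: luciferase signal from cell-cell fusion driven by HIV-1 clade B AD8 Env; potency is for inhibitors of fusion seen as a drop in luminescence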
[11] = molecular target: T4, Luciferin 4-monooxygenase; assay: Counter Screen for Luciferase-based Assay Positives. [Related pubchem assays: 620, 618, 411 ]
[12] = test system: HT-1080; assay: HT1080 cell viability loss – fluorescence readout (AID 620); assay type: functional, cell-based; details: Homo sapiens
[13] = test system: HEK293; assay: Cytotoxicity assay in HEK293 cells. [Related pubchem assays (depositor defined):AID1266, AID1269, AID1270, AID1271, AID1280, AID1281, AID1282, AID1283, AID1287, AID1289, AID1290, AID1291, AID1292, AID1293, AID1294, AID1295, AID1299, AID1302, AID1364, AID1365, AID1366, AID1367, AID1369, AID1370, AID1371, AID1372, AID1373, AID1374, AID1375, AID1384 …; assay type: functional, cell-based; details: Homo sapiens
[14] = blockers of HIV-1 envelope-mediated cell-cell fusion – cherry-pick, dose response (AID 652057); assay type: functional, cell-based
[15] = molecular target: Glyceraldehyde-3-phosphate dehydrogenase (Homo sapiens, UniProt P04406)
[16] = molecular target: Potassium voltage-gated channel subfamily KQT member 2 (Rattus norvegicus, UniProt O88943); assay: potentiation of rat KCNQ2 current – cell-based, retigabine-insensitive compounds, dose response (AID 2654); assay type: functional
[17] = molecular target: T5, Mannose-6-phosphate isomerase (Homo sapiens, UniProt P34949); assay: phosphomannose isomerase inhibition – biochemical, fluorescence intensity, confirmation (AID 1535)
T5 sequence (P34949 whole entry): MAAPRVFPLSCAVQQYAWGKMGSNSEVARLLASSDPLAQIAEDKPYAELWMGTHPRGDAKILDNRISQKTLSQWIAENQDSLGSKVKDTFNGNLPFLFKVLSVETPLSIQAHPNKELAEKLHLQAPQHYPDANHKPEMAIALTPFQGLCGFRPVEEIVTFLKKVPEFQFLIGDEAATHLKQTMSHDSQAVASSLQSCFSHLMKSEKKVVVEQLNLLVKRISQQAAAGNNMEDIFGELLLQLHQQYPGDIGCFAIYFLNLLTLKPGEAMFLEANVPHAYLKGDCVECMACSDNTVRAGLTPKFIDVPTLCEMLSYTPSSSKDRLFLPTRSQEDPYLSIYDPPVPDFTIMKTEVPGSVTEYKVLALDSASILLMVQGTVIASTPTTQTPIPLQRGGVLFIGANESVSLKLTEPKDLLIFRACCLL

[18] = NIH3T3 cell viability loss – ATP luminescence, mouse fibroblasts, counter-screen, dose response (AID 2010); assay type: functional, cell-based;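 further: cells exposed to compound for about 90 hours before reading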
[19] = molecular target: Phosphomannomutase 2 (Homo sapiens, UniProt O15305); assay: Counter screen SAR assay for PMM2 inhibitors via a fluorescence intensity assay. [Related pubchem assays (depositor defined):AID1545, AID1574]
[20] = viability loss of HPDE-C7K cells – cell-based, fluorescence, HTS, primary screen (AID 431); assay type: functional; details: Homo sapiens
[21] = molecular target: Phosphoethanolamine/phosphocholine phosphatase (Homo sapiens, UniProt Q8TCT1); assay: SAR assay for compounds that inhibit PHOSPHO1. [Related pubchem assays (depositor defined):AID1545, AID1565, AID1574]
[22] = Trypanosoma cruzi growth suppression in host cells – NIH3T3 host cells, beta-gal luminescence, confirmation (AID 2044); assay type: functional, cell-based;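 further: intracellular parasites grown in NIH/3T3 mouse fibroblasts as host cells; luminescent beta-galactosidase reporter signal from transgenic T. cruzi replicating inside host cells; inhibitors lower the luminescence signal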
[23] = molecular target: Glucose-6-phosphate 1-dehydrogenase (Homo sapiens, UniProt P11413); assay: inhibition of Homo sapiens G6PD, dose series – biochemical, fluorescence, selectivity assay for P. falciparum G6PD inhibitor project, dose response (AID 504792); assay type: functional
[24] = HPDE-C7 pancreatic duct cell viability loss – fluorescence, HTS (AID 430); assay type: functional, cell-based; details: Homo sapiens
[25] = molecular target: Beta-galactosidase (Escherichia coli, UniProt Q8VNN2); assay type: functional
[26] = Fluorescence-based cell-based high throughput dose response assay for inhibitors of the interaction of nucleotide-binding oligomerization domain containing 2 (NOD2) and the receptor-interacting serine-threonine kinase 2 (RIPK2).; assay type: functional; details: Homo sapiens
[27] = molecular target: T6, Kappa-type opioid receptor (Homo sapiens, UniProt P41145); assay type: functional
[28] = viability of PTEN-deleted HCT116 cells – cell-based, HCT116 PTEN knockout, dose response (AID 1047); assay type: functional;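 further: HCT116 colon tumor cells with PTEN knocked out; cells exposed to compound for 60 hours before readout; potency for loss of cell viability measured by luminescence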
[29] = viability of HCT116 lacking mutant beta-catenin – cell-based, human colon tumor, dose response (AID 1045); assay type: functional;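 further: HCT116 colon tumor cells with beta catenin knocked out; cells exposed to compound for 60 hours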
[30] = molecular target: T6, Kappa-type opioid receptor; assay type: functional; remark: listed apart in the source

T1 sequence (Q9Y570 whole entry): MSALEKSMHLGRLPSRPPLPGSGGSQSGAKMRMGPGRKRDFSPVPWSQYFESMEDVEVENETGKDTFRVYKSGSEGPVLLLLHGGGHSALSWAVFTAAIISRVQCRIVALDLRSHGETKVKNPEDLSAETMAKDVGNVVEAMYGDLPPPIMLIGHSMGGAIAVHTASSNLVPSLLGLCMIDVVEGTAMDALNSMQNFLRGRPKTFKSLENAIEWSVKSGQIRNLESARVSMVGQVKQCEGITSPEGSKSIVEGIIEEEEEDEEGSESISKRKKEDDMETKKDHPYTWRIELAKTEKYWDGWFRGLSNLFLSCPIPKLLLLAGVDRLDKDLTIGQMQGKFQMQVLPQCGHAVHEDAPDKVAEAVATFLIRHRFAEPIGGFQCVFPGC
T6 sequence (P41145 whole entry): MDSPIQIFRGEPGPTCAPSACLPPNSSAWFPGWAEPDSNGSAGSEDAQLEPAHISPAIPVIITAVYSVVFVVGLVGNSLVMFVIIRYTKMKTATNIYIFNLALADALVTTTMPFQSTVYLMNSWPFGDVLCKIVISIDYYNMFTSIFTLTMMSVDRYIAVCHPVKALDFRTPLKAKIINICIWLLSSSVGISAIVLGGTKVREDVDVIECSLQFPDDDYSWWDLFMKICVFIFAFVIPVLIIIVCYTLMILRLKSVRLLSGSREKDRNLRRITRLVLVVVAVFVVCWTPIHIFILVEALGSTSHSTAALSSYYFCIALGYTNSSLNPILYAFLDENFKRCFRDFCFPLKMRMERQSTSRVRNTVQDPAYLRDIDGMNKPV
T4 sequence (P08659 whole entry): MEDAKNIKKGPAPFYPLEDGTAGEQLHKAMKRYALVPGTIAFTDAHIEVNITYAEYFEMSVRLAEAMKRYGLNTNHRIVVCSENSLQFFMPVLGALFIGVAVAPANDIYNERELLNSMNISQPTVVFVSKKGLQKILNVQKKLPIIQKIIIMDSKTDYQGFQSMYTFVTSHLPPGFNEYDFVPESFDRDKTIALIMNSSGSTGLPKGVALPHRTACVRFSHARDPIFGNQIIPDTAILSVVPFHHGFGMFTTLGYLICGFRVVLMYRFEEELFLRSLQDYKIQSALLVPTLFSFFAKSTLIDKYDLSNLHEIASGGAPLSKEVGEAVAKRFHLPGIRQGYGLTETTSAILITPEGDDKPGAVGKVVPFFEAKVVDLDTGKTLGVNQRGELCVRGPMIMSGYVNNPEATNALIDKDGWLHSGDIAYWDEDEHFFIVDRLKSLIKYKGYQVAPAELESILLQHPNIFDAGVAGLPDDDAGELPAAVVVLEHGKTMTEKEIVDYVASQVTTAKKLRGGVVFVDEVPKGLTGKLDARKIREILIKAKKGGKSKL
Potassium voltage-gated channel subfamily KQT member 2, sequence (O88943 whole entry): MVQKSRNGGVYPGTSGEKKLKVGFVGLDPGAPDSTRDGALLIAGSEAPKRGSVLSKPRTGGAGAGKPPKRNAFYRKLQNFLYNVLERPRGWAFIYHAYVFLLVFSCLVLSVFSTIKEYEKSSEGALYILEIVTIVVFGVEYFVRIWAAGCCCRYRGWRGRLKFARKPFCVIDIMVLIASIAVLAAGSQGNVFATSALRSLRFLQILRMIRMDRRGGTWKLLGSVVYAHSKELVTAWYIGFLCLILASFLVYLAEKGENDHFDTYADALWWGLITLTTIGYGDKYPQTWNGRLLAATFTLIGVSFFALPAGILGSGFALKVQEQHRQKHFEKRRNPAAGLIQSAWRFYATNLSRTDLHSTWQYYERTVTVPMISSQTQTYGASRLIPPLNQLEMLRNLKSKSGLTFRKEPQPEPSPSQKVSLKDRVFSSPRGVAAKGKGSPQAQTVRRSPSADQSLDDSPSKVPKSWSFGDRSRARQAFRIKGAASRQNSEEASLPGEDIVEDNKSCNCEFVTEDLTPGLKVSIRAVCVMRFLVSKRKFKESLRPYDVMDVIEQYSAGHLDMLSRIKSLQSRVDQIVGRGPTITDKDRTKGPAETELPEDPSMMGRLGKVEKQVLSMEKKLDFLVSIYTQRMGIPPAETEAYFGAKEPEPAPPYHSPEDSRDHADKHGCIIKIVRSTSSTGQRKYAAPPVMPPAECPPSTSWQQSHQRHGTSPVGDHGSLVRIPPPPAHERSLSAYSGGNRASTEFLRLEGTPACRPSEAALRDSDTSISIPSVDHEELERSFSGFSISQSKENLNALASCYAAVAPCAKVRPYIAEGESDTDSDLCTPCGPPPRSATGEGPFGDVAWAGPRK
Protein Rev, sequence (P04618 whole entry, the tested form may be a part): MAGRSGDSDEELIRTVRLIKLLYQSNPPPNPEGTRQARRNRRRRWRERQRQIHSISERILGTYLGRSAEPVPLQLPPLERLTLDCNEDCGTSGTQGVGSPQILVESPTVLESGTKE
Beta-galactosidase, sequence (Q8VNN2 whole entry, the tested form may be a part): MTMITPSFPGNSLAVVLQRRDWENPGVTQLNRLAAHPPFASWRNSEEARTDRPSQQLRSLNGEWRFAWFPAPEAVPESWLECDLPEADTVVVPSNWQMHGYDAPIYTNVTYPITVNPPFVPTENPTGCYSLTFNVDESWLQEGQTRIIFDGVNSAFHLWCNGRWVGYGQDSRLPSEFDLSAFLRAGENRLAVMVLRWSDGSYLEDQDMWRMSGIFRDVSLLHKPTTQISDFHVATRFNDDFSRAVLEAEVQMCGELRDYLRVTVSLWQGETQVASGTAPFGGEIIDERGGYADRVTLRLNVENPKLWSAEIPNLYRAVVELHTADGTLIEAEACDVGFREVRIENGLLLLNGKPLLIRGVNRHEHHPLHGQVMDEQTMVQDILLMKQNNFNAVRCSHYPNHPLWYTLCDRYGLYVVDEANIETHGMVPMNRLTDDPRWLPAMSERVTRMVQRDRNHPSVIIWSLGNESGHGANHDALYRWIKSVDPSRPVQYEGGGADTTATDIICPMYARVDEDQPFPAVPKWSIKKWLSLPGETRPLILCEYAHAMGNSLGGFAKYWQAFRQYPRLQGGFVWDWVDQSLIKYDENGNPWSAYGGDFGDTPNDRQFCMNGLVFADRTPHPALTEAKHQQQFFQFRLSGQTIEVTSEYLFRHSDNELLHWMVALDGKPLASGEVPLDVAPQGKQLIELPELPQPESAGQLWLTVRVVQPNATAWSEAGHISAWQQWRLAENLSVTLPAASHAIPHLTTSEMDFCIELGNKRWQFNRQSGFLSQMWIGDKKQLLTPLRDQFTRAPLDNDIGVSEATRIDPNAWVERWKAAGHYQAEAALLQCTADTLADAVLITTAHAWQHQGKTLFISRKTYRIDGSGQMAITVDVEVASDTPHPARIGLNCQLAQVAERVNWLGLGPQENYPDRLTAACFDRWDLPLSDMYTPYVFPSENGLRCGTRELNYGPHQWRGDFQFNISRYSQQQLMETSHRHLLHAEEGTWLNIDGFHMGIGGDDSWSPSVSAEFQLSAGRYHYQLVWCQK
Female germline-specific tumor suppressor gld-1, sequence (Q17339 whole entry, the tested form may be a part): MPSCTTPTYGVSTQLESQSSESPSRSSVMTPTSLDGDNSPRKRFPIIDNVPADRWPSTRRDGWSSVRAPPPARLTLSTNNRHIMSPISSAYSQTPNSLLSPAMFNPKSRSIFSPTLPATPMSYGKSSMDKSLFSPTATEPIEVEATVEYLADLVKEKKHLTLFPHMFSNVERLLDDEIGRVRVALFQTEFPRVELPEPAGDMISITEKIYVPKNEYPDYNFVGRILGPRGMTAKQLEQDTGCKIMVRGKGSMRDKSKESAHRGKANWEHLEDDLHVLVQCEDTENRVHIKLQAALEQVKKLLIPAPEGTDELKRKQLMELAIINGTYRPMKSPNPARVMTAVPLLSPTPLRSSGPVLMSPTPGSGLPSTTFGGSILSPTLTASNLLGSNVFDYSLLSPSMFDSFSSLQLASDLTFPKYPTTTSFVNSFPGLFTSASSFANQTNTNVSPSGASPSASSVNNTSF
Phosphomannomutase 2, sequence (O15305 whole entry): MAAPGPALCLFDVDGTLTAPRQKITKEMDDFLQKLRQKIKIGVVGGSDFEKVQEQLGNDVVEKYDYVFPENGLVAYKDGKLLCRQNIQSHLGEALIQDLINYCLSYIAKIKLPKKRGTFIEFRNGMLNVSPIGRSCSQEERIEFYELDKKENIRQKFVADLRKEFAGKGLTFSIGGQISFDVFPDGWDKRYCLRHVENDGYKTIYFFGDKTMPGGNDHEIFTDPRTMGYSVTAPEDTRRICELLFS
Glyceraldehyde-3-phosphate dehydrogenase, sequence (P04406 whole entry): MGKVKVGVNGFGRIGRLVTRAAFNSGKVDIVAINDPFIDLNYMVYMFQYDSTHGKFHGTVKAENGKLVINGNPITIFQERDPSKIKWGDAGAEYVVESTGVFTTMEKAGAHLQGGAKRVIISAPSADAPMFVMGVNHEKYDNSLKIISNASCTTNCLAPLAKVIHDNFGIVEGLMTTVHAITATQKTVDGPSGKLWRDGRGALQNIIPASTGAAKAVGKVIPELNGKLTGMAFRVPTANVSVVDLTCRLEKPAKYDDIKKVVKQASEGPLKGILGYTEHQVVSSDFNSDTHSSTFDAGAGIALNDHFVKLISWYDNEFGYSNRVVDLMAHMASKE
Phosphoethanolamine/phosphocholine phosphatase, sequence (Q8TCT1 whole entry): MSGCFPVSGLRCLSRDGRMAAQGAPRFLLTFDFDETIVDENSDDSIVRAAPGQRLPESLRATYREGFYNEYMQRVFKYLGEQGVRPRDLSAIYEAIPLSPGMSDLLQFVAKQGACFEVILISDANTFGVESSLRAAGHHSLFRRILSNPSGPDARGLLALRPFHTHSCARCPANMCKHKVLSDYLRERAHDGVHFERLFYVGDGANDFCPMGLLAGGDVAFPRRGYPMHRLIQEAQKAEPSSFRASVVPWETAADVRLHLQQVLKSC

Question: For CS(=O)(=O)/C(C#N)=C/c1ccccc1, which IC50 [1] is on record?
Answer: > 20 µM (not active)

Question: What about the IC50 [2] of the same molecule?
Answer: > 20 µM (inactive)

Question: Which EC50 [3] does the source give for CCCCN(C(=O)c1ccc([N+](=O)[O-])o1)c1c(N)n(CC(C)C)c(=O)[nH]c1=O here?
Answer: 16 µM (active)

Question: What about the IC50 [4] of the same molecule?
Answer: 7.26 µM (active)

Question: What about the EC50 [5] of the same molecule?
Answer: 18.7 µM (active)

Question: What about the IC50 [6] of the same molecule?
Answer: 2.74 µM (active)

Question: Which AC50 [7] does the source give for O=C(c1ccc(Cl)cc1)N1CCCCC(Sc2nnc(-c3ccc4c(c3)OCO4)o2)C1=O (stereo not given) here?
Answer: 13.5 µM (active)

Question: And the EC50 [8]?
Answer: > 8 µM (not active)

Question: What about the EC50 [9] of the same molecule?
Answer: 4.25 µM (not active)

Question: What about the AC50 [10] of the same molecule?
Answer: 5.75 µM (active)

Question: What about the EC50 [11] of the same molecule?
Answer: 4.07 µM (active)

Question: And the EC50 [12]?
Answer: > 50 µM (not active)

Question: What about the EC50 [13] of the same molecule?
Answer: 2.19 µM (active)

Question: What about the AC50 [14] of the same molecule?
Answer: 2.78 µM (active)

Question: And the IC50 [15]?
Answer: > 100 µM (not active)

Question: Which EC50 [16] does the source give for CCOc1ccc(NC(=O)Nc2cccnc2)cc1 here?
Answer: 14.3 µM (active)

Question: With O=c1c2ccccc2sn1-c1ccc(S(=O)(=O)N2CCCC2)cc1 as the molecule, how does the IC50 [17] read?
Answer: > 50 µM (inactive)

Question: And the EC50 [18]?
Answer: > 30 µM (not active)

Question: What about the IC50 [19] of the same molecule?
Answer: > 100 µM (inactive)

Question: And the EC50 [20]?
Answer: > 20 µM (not active)

Question: What about the IC50 [21] of the same molecule?
Answer: 0.489 µM (active)

Question: What about the EC50 [22] of the same molecule?
Answer: 1.29 µM (active)

Question: And the IC50 [23]?
Answer: 30.7 µM (inactive)

Question: And the EC50 [24]?
Answer: > 20 µM (not active)

Question: What does the source list for N#CC(C#N)=C1C=CC=CN1/C(=C\c1ccco1)C(=O)c1ccc(-c2ccccc2)cc1?
Answer: EC50 [25]: > 31.5 µM (inactive); IC50 [26]: 0.945 µM (active); IC50 [27]: > 32 µM; EC50 [28]: 4.69 µM (active); EC50 [29]: 4.81 µM (active); IC50 [30]: 16.1 µM (active)
